Structures are written as SMILES. Values after ≈ are worked out from the molar mass of the structure shown.

Data set [1] deals with Mycobacterium tuberculosis. Nature of the data set: Antitubercular activity against Mycobacterium tuberculosis H37Ra after 8 days by visual analysis. It is filed as functional. Conditions: 192 h.
Another data set concerns the target T1, Quinone oxidoreductase (Homo sapiens, UniProt Q08257).
T1 sequence (Q08257 whole entry): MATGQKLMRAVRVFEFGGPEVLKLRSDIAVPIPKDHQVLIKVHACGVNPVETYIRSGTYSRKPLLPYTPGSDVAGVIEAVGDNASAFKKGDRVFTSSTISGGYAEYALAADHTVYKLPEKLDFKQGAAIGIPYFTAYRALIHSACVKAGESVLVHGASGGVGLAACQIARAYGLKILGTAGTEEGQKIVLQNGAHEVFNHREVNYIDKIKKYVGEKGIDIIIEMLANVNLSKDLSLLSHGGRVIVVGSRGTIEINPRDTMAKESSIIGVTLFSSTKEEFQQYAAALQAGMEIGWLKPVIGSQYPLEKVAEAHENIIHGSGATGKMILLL
Nature of the data set: Inhibition of human Quinone oxidoreductase.

Data set [2] relates to HeLa. Put plainly: Cytotoxicity against human HeLa cells assessed as reduction in cell viability after 2 hrs in presence of AZD7765 by Alamar blue assay. The format is functional, cell-based.
Data set [3] deals with NCI-H460. Nature of the data set: Cytotoxicity against human NCI-H460 cells assessed as reduction in cell viability after 2 hrs in presence of AZD7765 by Alamar blue assay. It is filed as functional, cell-based. Conditions: NCI-H460, 2 h.
The test system of data set [4] is HT-29. Put plainly: Cytotoxicity against human HT-29 cells assessed as reduction in cell viability after 2 hrs in presence of AZD7765 by Alamar blue assay. It is filed as functional, cell-based. The note with it: HT-29, 2 h.
The subject of the next data set is DU-145. Nature of the data set: Cytotoxicity against human DU145 cells assessed as reduction in cell viability after 2 hrs in presence of AZD7765 by Alamar blue assay. The format is functional, cell-based. The note with it: DU-145, 2 h.
Data set [5] concerns HeLa. Put plainly: Cytotoxicity against human HeLa cells assessed as reduction in cell viability after 2 hrs in presence of LY2603618 by Alamar blue assay. The format is functional, cell-based.
The test system of data set [6] is NCI-H460. Nature of the data set: Cytotoxicity against human NCI-H460 cells assessed as reduction in cell viability after 2 hrs in presence of LY2603618 by Alamar blue assay. It is filed as functional, cell-based. Conditions: NCI-H460, 2 h.
Data set [7] has as its system HT-29. Put plainly: Cytotoxicity against human HT-29 cells assessed as reduction in cell viability after 2 hrs in presence of LY2603618 by Alamar blue assay. It is filed as functional, cell-based. Conditions: HT-29, 2 h.
The subject of data set [8] is NCI-H460. Nature of the data set: Cytotoxicity against human NCI-H460 cells assessed as reduction in cell viability after 2 hrs in presence of PF477736 by Alamar blue assay. The format is functional, cell-based. The note with it: NCI-H460, 2 h.
Data set [9] concerns HT-29. Put plainly: Cytotoxicity against human HT-29 cells assessed as reduction in cell viability after 2 hrs in presence of PF477736 by Alamar blue assay. The format is functional, cell-based. Conditions: HT-29, 2 h.
Data set [10] has as its system Mycobacterium tuberculosis. Nature of the data set: Antitubercular activity against Mycobacterium tuberculosis. It is filed as functional.
Data set [11] relates to Mycobacterium tuberculosis. Put plainly: Antitubercular activity against drug-sensitive Mycobacterium tuberculosis. It is filed as functional.
The subject of data set [12] is NCI-H460. Put plainly: Ratio of IC50 for antiproliferative activity against human NCI-H460 cells in presence of O2 to antiproliferative activity against human NCI-H460 cells in presence of N2. It is filed as functional.
The subject of data set [13] is NCI-H460. Nature of the data set: Antiproliferative activity against human NCI-H460 cells in presence of O2. The format is functional, cell-based.
Data set [14] has as its system NCI-H460. Nature of the data set: Antiproliferative activity against human NCI-H460 cells in presence of N2. The format is functional, cell-based.
The target of data set [15] is T2, Oxygen-insensitive NAD(P)H nitroreductase (Escherichia coli K-12, UniProt P38489).
T2 sequence (P38489 whole entry): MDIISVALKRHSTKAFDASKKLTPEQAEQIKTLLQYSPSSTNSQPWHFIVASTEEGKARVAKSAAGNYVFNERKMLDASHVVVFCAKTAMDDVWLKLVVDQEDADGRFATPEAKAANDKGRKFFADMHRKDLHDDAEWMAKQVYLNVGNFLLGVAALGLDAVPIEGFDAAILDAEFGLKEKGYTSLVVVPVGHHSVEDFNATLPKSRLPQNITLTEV
Put plainly: Susbtrate activity at Escherichia coli nitroreductase assessed as half life. It is filed as ADME.

Data set [16] can be described thus: Inhibition of Escherichia coli nitroreductase F179 mutant.
Data set [17] has as its target T2, Oxygen-insensitive NAD(P)H nitroreductase. Put plainly: Inhibition of Escherichia coli nitroreductase expressed in human HCT116 cells. The format is cell-based.
The subject of data set [18] is NCI-H460. Nature of the data set: Cytotoxicity against human NCI-H460 cells assessed as reduction in cell viability after 2 hrs under hypoxic conditions by Alamar blue assay. It is filed as functional, cell-based. Conditions: NCI-H460, 2 h.
The subject of data set [19] is NCI-H460. Put plainly: Cytotoxicity against human NCI-H460 cells assessed as reduction in cell viability after 2 hrs under normoxic conditions by Alamar blue assay. The note with it: NCI-H460, 2 h. The format is functional, cell-based.
A short description of data set [20]: Tmax in mouse at 10 mg/kg. It is filed as ADME, organism-based. The note with it: in vivo.
A short description of data set [21]: Cmax in mouse at 10 mg/kg. More on the design: dose 10 mg/kg. The note with it: in vivo. It is filed as ADME, organism-based.
Data set [22] in a line: Half life in mouse at 10 mg/kg. It is filed as ADME, organism-based. The note with it: in vivo.
Data set [23] in a line: Clearance in mouse at 10 mg/kg. The note with it: in vivo. It is filed as ADME, organism-based.
The subject of data set [24] is Hep 3B2. Nature of the data set: Cytotoxicity against human Hep3B cells after 24 hrs by MTS assay. The format is functional, cell-based.
Data set [25] has as its system Hep 3B2. Nature of the data set: Cytotoxicity against human Hep3B cells after 24 hrs under hypoxic condition by MTS assay. It is filed as functional, cell-based.

`COc1ccc(CNC(=O)c2ccc([N+](=O)[O-])o2)cc1OC` showed a minimum inhibitory concentration (MIC) in [1] of 0.2 µM (≈ 0.0613 µg/mL).

`O=[N+]([O-])c1ccc(C2CCOP(=O)(N(CCCl)CCCl)N2)cc1` (configuration not stated) gave an IC50 against Quinone oxidoreductase of 48 µM.

Regarding `Cn1c(COP(=O)(NCCCl)NCCCl)cnc1[N+](=O)[O-]`, the IC50 with HeLa [2] stood at 95 mM; in the data set on NCI-H460 [3], 25 mM; in the data set with HT-29 [4], 39 mM; in the data set with DU-145 it was 80 mM; in the data set on HeLa [5], 90 mM; in the data set on NCI-H460 [6], 22 mM. For the same molecule, the results for the IC50 in the data set on HT-29 [7], with NCI-H460 [8] and in the data set with HT-29 [9] were 46 mM, 19 mM and 57 mM, respectively.

For `O=[N+]([O-])C1CN2C[C@H](OCc3ccc(OC(F)(F)F)cc3)COC2=N1` (some centres not stated), the figures for the minimal inhibitory concentration (MIC) in data set [10] and in data set [11] were < 2.8 µM and 0.039 to 0.531 µg/mL (≈ 0.108 to 1.47 µM), respectively.

With `[O-]/[N+](O)=C1/CN2C[C@H](OCc3ccc(OC(F)(F)F)cc3)COC2=N1`, the MIC in data set [10] is < 2.8 µM; in data set [11], 0.039 to 0.531 µg/mL (≈ 0.108 to 1.47 µM).

As to `NC(=O)c1cc([N+](=O)[O-])cnc1N1CC1`, the “Ratio IC50” value with NCI-H460 [12] amounted to 21.3. Moreover, the results for the 50% inhibitory concentration (IC50) in the data set with NCI-H460 [13] and with NCI-H460 [14] were 198 µM and 9300 nM, respectively.

With `NC(=O)c1ccnc(N2CC2)c1[N+](=O)[O-]`, the “Ratio IC50” value in the data set on NCI-H460 [12] came out at 52.5. Moreover, the half-maximal inhibitory concentration (IC50) with NCI-H460 [13] was found to be 142 µM; with NCI-H460 [14], 2700 nM.

Take `O=[N+]([O-])c1ccc2c(c1)NP(=O)(N(CCCl)CCCl)NC2` (configuration not stated): the half-life in data set [15] came to 7.8 min.

Consider `O=[N+]([O-])c1ccc2c(c1)OP(=O)(N(CCCl)CCCl)NC2` (configuration not stated), for which the half-life in [15] stood at 11 min. Further, the IC50 in data set [16] worked out at 61 µM; in [17], 48 µM; against Quinone oxidoreductase it was 48 µM.

In the case of `COc1cccc2c1C(=O)c1c(O)c3c(c(O)c1C2=O)C[C@@](O)(C(C)=O)C[C@@H]3O[C@H]1C[C@H](NCOCCn2ccnc2[N+](=O)[O-])[C@H](O)[C@H](C)O1`, the values for the IC50 in the data set on NCI-H460 [18] and with NCI-H460 [19] were 23 nM and 9.8 µM, respectively. For the same molecule, the time to peak (Tmax) in data set [20] was 5 min. In [21], this molecule yielded a maximum concentration (Cmax) of 1820 ng/mL. This molecule also showed a half-life in [22] of 28.8 min. This molecule had a clearance in [23] of 188 mL/min/kg.

With `COc1ccc(C[C@@H](C)[C@@H](C)Cc2ccc(OCCOCCOCCOCCn3ccnc3[N+](=O)[O-])c(OC)c2)cc1OC`, the half-inhibitory concentration (IC50) in the data set on Hep 3B2 [24] and with Hep 3B2 [25] was 13.4 µM in each case.

On to `NC(=O)c1cnc(N2CC2)c([N+](=O)[O-])c1`, for which the “Ratio IC50” value with NCI-H460 [12] stood at 62. Also, the concentration for half-maximal inhibition (IC50) worked out at 143 µM in the data set on NCI-H460 [13] and 2300 nM with NCI-H460 [14].

In the case of `NC(=O)c1ccc([N+](=O)[O-])c(N2CC2)n1`, in the data set on NCI-H460 [12], the “Ratio IC50” value is 35.9. For the same molecule, the 50% inhibitory concentration (IC50) in the data set with NCI-H460 [13] is 61 µM; with NCI-H460 [14] it was 1700 nM.

With `FC(F)(F)Oc1ccc(CO[C@@H]2COc3nccn3C2)cc1`, the minimum inhibitory concentration (MIC) was < 2.8 µM in data set [10] and 0.039 to 0.531 µg/mL (≈ 0.124 to 1.69 µM) in data set [11].

The record behind these values is ChEMBL document CHEMBL4316582, “Nitro-Group-Containing Drugs” (J Med Chem, 2019).
